Assay results published in US20250270198A1, “PYRIDONE COMPOUNDS AS TRPA1 INHIBITORS” (D. E. Shaw Research, LLC, priority 2022, published 2025).
pIC50: −log10 of the molar value.

Key:
[1] = molecular target: human TRPA1 channel (Homo sapiens (Human), UniProt O75762); assay: TRPA1 inhibitor activity, automated patch clamp (SyncroPatch); format: cell-based; settings: CHO cells inducibly expressing human TRPA1; currents elicited by carvacrol (300 μM), holding potential −60 mV; Table 5
Description: This assay was used to evaluate the disclosed compounds' inhibition activities against the human TRPA1 channel.
CHO cells inducibly expressing human TRPA1 were grown in DMEM containing 10% heat-inactivated FBS, 1 mM Sodium Pyruvate, 2 mM L-Glutamine, Zeocin (100 μg/ml) and Blasticidin (10 μg/ml). Expression was induced by addition of Doxycycline (1 μg/ml) 24 hours before experiments. Cells used for electrophysiology were plated in plastic culture flasks and grown at 37° C. in a 5% CO2-humidified tissue culture incubator per ChanPharm SOP. Stocks were maintained in cryogenic storage.
The cells were bathed in an extracellular solution containing 80 mM NaCl, 60 mM NMDG, 4 mM KCl, 2 mM CaCl2), 6 mM MgCl2, 5 mM Glucose. 10 mM HEPES, 3 mM HEDTA; pH adjusted to 7.4 with NaOH; 305-310 mOsm. All compounds were dissolved in DMSO at 30 mM. The internal solution contained 10 mM CsCl, 110 mM CsF, 10 mM NaCl, 10 mM EGTA, 10 mM HEPES, 4 mM MgATP, 0.25 mM NaGTP, 4 mM BAPTA; pH adjusted to 7.2 with CsOH; 285-290 mOsm. Compound stock solutions were freshly diluted with external solution to concentrations of 3 nM, 10 nM 30 nM, 100 nM, 300 nM, 1 μM, 3 μM, 10 μM, and 30 μM. The highest content of DMSO (0.1%) was present at 30 μM.
All experiments were performed at room temperature. Each cell acted as its own control. In preparation for a current recording session, intracellular solution (see above) was loaded into the intracellular compartments of the automated patch clamp platform SyncroPatch (Nanion) chip and the cell suspension was pipetted into the extracellular compartments. After establishment of a whole-cell configuration, membrane current recordings and compound application were enabled by means of the SyncroPatch. TRPA1 currents were elicited by application of carvacrol (300 μM) at a constant holding potential of −60 mV (see Table A below).
To determine IC50 values, AUC and peak values, obtained in the presence of a given compound concentration, were normalized to control values in absence of compound. Using DataControl384 (Nanion's proprietary software), IC50 values were derived by fitting the normalized data to the Hill equation.

[2] = molecular target: hERG channel (Homo sapiens (Human), UniProt Q12809); assay: hERG activity, automated patch clamp (SyncroPatch); format: cell-based; settings: CHO-K1 cells stably expressing hERG; tail current at −50 mV; compounds at 50 μM and 100 μM; Table 5
Sequence of hERG channel (Q12809 whole entry): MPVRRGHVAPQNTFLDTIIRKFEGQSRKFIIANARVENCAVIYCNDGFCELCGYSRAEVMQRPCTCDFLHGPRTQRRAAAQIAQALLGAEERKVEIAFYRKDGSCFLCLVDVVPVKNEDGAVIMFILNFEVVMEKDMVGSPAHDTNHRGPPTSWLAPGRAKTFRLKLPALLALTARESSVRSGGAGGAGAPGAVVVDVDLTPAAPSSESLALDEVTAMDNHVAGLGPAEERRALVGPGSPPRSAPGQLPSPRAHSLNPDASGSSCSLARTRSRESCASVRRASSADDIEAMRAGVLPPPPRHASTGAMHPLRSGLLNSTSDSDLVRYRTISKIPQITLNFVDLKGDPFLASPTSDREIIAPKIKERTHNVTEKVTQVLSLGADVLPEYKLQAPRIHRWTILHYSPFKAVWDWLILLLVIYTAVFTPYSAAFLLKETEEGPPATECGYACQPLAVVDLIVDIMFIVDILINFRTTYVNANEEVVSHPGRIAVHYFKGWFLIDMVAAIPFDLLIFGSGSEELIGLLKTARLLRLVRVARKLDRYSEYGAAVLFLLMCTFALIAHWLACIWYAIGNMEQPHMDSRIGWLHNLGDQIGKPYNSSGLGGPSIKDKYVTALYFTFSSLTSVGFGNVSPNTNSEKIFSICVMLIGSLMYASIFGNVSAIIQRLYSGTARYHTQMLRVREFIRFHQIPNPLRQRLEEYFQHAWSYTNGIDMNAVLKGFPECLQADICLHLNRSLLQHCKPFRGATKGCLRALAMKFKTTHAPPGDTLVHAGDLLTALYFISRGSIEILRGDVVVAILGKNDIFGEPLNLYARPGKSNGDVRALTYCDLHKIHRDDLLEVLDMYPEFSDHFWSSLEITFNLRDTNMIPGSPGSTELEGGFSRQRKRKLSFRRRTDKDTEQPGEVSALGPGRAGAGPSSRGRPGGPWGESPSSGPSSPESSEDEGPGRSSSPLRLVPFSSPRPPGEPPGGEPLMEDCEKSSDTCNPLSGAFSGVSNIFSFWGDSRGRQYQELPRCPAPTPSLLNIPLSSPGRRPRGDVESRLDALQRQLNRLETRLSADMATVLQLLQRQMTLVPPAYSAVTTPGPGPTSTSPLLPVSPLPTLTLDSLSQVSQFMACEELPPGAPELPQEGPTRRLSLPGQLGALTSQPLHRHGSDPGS
Description: This assay was used to evaluate the disclosed compounds' inhibition activities against the hERG channel.
CHO-K1 cells stably expressing hERG were grown in Ham's F-12 Medium with Glutamine containing 10% heat-inactivated FBS, 1% Penicillin/Streptomycin, Hygromycin (100 μg/ml), and G418 (100 μg/ml). Cells used for electrophysiology were plated in plastic culture flasks and grown at 37° C. in a 5% CO2-humidified incubator per ChanPharm SOP. Stocks were maintained in cryogenic storage.
The cells were bathed in an extracellular solution containing 140 mM NaCl, 4 mM KCl, 2 mM CaCl2), 1 mM MgCl2, 5 mM Glucose, and 10 mM HEPES; pH adjusted to 7.4 with NaOH; 295-305 mOsm. The internal solution contained 10 mM KCl, 110 mM KF, 10 mM NaCl, 10 mM EGTA, 10 mM HEPES; pH adjusted to 7.2 with KOH; 280-285 mOsm. All compounds were dissolved in DMSO at 30 mM. Compound stock solutions were freshly diluted with external solution to concentrations of 50 μM and 100 μM. The highest content of DMSO […].
All experiments were performed at room temperature. Each cell acted as its own control. In preparation for a recording session, intracellular solution (see above) was loaded into the intracellular compartments of the automated patch clamp platform SyncroPatch (Nanion) chip and the cell suspension was pipetted into the extracellular compartments. After establishment of a whole-cell configuration, membrane current recordings, and compound application were enabled by means of the SyncroPatch. hERG currents were elicited by a voltage pulse pattern with fixed amplitudes (depolarization: +20 mV amplitude, 300 ms duration; repolarization: −50 mV, 300 ms duration) repeated at 3 s intervals from a holding potential of −80 mV.
Data acquisition and analysis were performed using DataControl384 (Nanion's proprietary software). To determine the (percentage) inhibition, the last single pulse in the pulse train (i.e., the repolarization step to −50 mV; tail current) at a given compound concentration was used. AUC and peak values, obtained in the presence of compound, were normalized to control values in the absence of compound.

Sequence of human TRPA1 channel (O75762 whole entry): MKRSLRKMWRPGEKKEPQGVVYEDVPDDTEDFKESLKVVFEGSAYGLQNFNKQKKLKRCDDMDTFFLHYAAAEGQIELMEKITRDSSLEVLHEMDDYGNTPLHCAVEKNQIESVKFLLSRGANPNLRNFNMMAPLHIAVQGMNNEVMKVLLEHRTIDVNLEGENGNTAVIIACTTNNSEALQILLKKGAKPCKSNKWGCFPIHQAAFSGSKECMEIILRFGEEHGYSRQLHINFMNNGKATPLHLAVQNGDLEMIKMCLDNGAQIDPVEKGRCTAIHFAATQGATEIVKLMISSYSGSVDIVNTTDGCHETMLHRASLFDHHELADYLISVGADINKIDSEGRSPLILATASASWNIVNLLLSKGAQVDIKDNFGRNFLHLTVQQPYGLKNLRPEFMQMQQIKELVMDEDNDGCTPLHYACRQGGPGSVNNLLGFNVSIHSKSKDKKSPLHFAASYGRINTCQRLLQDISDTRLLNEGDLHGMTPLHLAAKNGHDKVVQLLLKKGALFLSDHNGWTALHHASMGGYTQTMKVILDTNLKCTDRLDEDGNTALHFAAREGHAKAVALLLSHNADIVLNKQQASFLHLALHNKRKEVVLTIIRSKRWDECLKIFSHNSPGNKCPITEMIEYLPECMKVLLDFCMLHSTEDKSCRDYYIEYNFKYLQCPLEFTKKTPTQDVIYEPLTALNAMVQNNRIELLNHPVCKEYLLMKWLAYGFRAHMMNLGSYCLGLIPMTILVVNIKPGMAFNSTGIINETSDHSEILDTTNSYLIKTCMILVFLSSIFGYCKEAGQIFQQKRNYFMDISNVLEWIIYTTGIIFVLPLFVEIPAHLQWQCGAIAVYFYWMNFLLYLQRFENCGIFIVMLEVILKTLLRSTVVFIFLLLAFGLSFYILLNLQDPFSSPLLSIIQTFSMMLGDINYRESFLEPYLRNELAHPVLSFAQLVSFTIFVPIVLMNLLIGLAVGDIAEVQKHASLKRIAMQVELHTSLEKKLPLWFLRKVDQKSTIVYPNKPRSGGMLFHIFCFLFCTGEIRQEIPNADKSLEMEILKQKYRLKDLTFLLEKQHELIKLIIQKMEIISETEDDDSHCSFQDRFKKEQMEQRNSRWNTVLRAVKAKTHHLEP

pIC50 [1]: > 7.00
Compound: N#Cc1ncn(Cc2nc(C[C@H](O)c3ccc(Cl)cc3)no2)c(=O)c1Cl [Compound 63, 5-chloro-1-({3-[(2S)-2-(4-chlorophenyl)-2-hydroxyethyl]-1,2,4-oxadiazol-5-yl}methyl)-6-oxopyrimidine-4-carbonitrile]
pIC50 [2]: > 4.30
